Each structure is given as a SMILES string.

The target of the test is Mu-type opioid receptor (Homo sapiens, UniProt P35372). Briefly: mu opioid receptor blockers – image-based, SAR follow-up (AID 2420).
Chain of Mu-type opioid receptor (P35372 whole entry): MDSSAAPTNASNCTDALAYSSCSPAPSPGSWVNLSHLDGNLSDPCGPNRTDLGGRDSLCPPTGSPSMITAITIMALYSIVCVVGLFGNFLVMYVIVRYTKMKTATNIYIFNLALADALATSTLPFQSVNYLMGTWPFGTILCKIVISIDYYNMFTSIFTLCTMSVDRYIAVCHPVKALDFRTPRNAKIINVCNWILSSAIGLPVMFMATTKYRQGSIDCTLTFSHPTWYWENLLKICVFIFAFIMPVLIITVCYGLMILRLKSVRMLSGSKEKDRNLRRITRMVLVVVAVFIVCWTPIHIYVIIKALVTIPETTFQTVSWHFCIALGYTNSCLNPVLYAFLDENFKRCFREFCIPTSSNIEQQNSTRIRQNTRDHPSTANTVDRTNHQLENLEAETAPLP

Take `CCC(N=Nc1ccnc2cc(Cl)ccc12)c1ccc(O)cc1` (configuration not stated) [4-[1-[2-(7-chloroquinolin-4-yl)hydrazinyl]propylidene]cyclohexa-2,5-dien-1-one]: the IC50 (commonly the concentration that inhibits the measured activity by half) is greater than 32 µM.
Next, `Oc1ccc(CN=Nc2ccnc3cc(Cl)ccc23)cc1O` [(4Z)-4-[[2-(7-chloroquinolin-4-yl)hydrazinyl]methylidene]-2-hydroxycyclohexa-2,5-dien-1-one]: greater than 32 µM.

(Values after BindingDB's records for doi:10.7270/Q2G44NRK (Burnham Center For Chemical Genomics, 2010).)
